Results taken from patent US3985779A, “M-phenoxyphenyl propionic acid derivatives and preparation thereof” (Eisai Co., Ltd., priority 1973, dated 1976).

What was measured:
writhing syndrome = experiment: Analgesic activity: antagonism to acetic acid writhing syndrome in mice (Experiment J); assay type: in vivo, mice (dd strain male)
Description: Analgesic activity of the compound of the present invention in comparison with the known compounds.
Analgesic activity of the compound was tested as the measure of antagonism to writhing syndrome appeared when 0.1 ml/10g of 0.7% acetic acid was intraperitoneally injected to the dd strain male mice having 17 - 20 grs. body weight which had been abstinence from food for 18 hours.
The compounds under test were orally administered in a form of suspension in a 5% aqueous solution of gum arabic. After one hour from the administration, the onset times required for the writhing syndrome were scored.
In another Experiment in the combined use of the compounds under test and Codeine phosphate, 10 - 20 mg/kg of Codeine phosphate were orally administered immediatly after the oral administration of the compounds under test.

stomachs of the rats = assay type: in vivo; conditions: 100 mg/kg oral; score 0 (nothing unusual) to 10 (considerable irritability with bleeding)
Excerpt: Observation of gastric irritability
Gastric irritability due to oral administration of the compounds as edema inhibitory agent was studied by macroscopical observation of the dissected stomachs of the rats which had been employed for determination of the edema inhibitions mentioned in the preceding paragraphs. The degrees of the irritability observed were scored in the 0 to 10 ratings depending upon the extent of errosions and bleedings of the stomachs, wherein the rating of 0(zero) means "nothing unusual", the rating of 10 means a state of considerable gastric irritability with bleeding and the remainders mean the intermediate degree of gastric irritability.

yeast-induced pyrexia = experiment: Antipyretic activity to the yeast-treated rats (Experiment I); assay type: in vivo, rats (Wistar strain male)
Description: To Wistar strain male rats having about 300 - 350 grs. body weight, an aqueous suspension of yeast was subcutaneously injected to induce pyrexia.
At the lapse of 4 hours since the dose of the yeast suspension, the compounds under test given in hereinaftermentioned Table 10 in a form of suspension in a 5% gum arabic aqueous solution are orally administered. The rectal temperatures of the rats were measured periodically by means of a thermister-type thermometer sold by Japan Koden K.K. As control, said 5% gum arabic aqueous solution alone was administered.

in vivo = conditions: mouse, po
Description: Comparison of toxicity of the phenyl propionic acid derivatives of the present invention and that of the other known anti-inflammatory agents was carried out in mice.

| SMILES | Onset time of writhing syndrome, mean ± S.E. (writhing syndrome; 10 mg/kg p.o. combined with Codeine Phosphate 10 mg/kg) | Onset time of writhing syndrome, mean ± S.E. (writhing syndrome; 10 mg/kg p.o. combined with Codeine Phosphate 20 mg/kg) | Onset time of writhing syndrome, mean ± S.E. (writhing syndrome; 160 mg/kg p.o. combined with Codeine Phosphate 10 mg/kg) | Onset time of writhing syndrome, mean ± S.E. (writhing syndrome; 160 mg/kg p.o. combined with Codeine Phosphate 20 mg/kg) | minimal effective dose (writhing syndrome; Mus musculus, 1 h, single oral administration, read-out: dose with significant antagonism / retardation of writhing syndrome) | Onset time of writhing syndrome, mean ± S.E. (writhing syndrome; test compound alone, 10 mg/kg p.o.) | Onset time of writhing syndrome, mean ± S.E. (writhing syndrome; test compound alone, 160 mg/kg p.o.) | Degree of gastric irritability (stomachs of the rats) | body temperature relative to normal (in words) (yeast-induced pyrexia; 320 mg/kg p.o.) | Change in rectal temperature, mean ± S.E. (yeast-induced pyrexia; 1 hr, 80 mg/kg p.o.) | Change in rectal temperature, mean ± S.E. (yeast-induced pyrexia; 1 hr, 160 mg/kg p.o.) | Change in rectal temperature, mean ± S.E. (yeast-induced pyrexia; 1 hr, 320 mg/kg p.o.) | Change in rectal temperature, mean ± S.E. (yeast-induced pyrexia; 3 hrs, 80 mg/kg p.o.) | Change in rectal temperature, mean ± S.E. (yeast-induced pyrexia; 3 hrs, 160 mg/kg p.o.) | Change in rectal temperature, mean ± S.E. (yeast-induced pyrexia; 3 hrs, 320 mg/kg p.o.) | Change in rectal temperature, mean ± S.E. (yeast-induced pyrexia; 5 hrs, 80 mg/kg p.o.) | Change in rectal temperature, mean ± S.E. (yeast-induced pyrexia; 5 hrs, 160 mg/kg p.o.) | Change in rectal temperature, mean ± S.E. (yeast-induced pyrexia; 5 hrs, 320 mg/kg p.o.) | LD50 (in vivo) |
| --- | --- | --- | --- | --- | --- | --- | --- | --- | --- | --- | --- | --- | --- | --- | --- | --- | --- | --- | --- |
| CC(=O)Oc1ccccc1C(=O)O [Aspirin] | 5.4 ± 0.4 min | 9.6 ± 1.8 min | 6.2 ± 0.6 min | 11.1 ± 1.6 min | 160 mg/kg | 5.2 ± 1.4 min | 5.9 ± 0.8 min | 10 | body temperature injuriously depressed below the normal body temperature | -0.18 ± 0.10 | -0.48 ± 0.23 | -0.75 ± 0.10 | -0.25 ± 0.18 | -1.05 ± 0.18 | -1.68 ± 0.28 | -0.20 ± 0.12 | -0.95 ± 0.18 | -1.30 ± 0.29 | 1600 mg/kg |
| COc1ccc2c(c1)c(CC(=O)O)c(C)n2C(=O)c1ccc(Cl)cc1 [INDOMETHACIN] | – | – | – | – | – | – | – | – | – | – | – | – | – | – | – | – | – | – | 37.5 mg/kg |
